Measurements taken from patent US11400056B2, “Pharmaceutical composition comprising gallstone solubilizer for treatment of gallbladder disease” (SurgiNex Co., Ltd., priority 2016, dated 2022).

Assays:
[1] = Evaluation of gallstone dissolution, cholesterol stone; design: species or system human; settings: 37° C., 4 hours; for Dissolution ability (%) Cholesterol stone: 0.5 g gallstone + 0.5 ml agent (1 g compound in 1 ml DMSO), (weight after dissolution)/(weight before dissolution)×100
Method: (§1) In order to evaluate the cholesterol stone and pigmented stone dissolution abilities of each of Examples 1 to 3 and Comparative Examples 1 and 2 prepared according to the Preparation Example above, cholesterol stones and pigmented stones removed during surgery of gallstone patients were obtained, thereby preparing gallstones. 0.5 g of each of the prepared gallstones was placed in an Eppendorf tube, and then 0.5 ml of each of the gallstone-dissolving agents of Examples 1 to 3 and Comparative Examples 1 and 2 was added to the Eppendorf tube containing the gallstone. Each tube was left to stand at 37° C. for 4 hours. Thereafter, the gallstone dissolution ability of each compound was evaluated by measuring the mass of the gallstones before and after dissolving the gallstone by treatment with each compound. The results of evaluating the abilities to dissolve cholesterol stones and pigmented stones are shown in Tables 2 and 3 below, respectively, and photographs before and after dissolving the gallstones are comparatively shown in FIGS. 1 and 2, respectively.
(§2) The gallstone dissolution ability was calculated using the following equation: Gallstone dissolution ability (%)=(weight of gallstone after dissolution)/(weight of gallstone before dissolution)×100

[2] = Evaluation of gallstone dissolution, pigmented stone; design: species or system human; settings: 0.5 g gallstone + 0.5 ml agent (1 g compound in 1 ml DMSO), 37° C., 4 hours; (weight after dissolution)/(weight before dissolution)×100
Method: as §1, §2

SMILES	Dissolution ability (%) Cholesterol stone [1] [%]	Dissolution ability (%) Pigmented stone [2] [%]	ability to dissolve the cholesterol stone (in words) ([1]; Table 2 and FIG. 1)
COC(C)(C)C [Comparative Example 1, Methyl tert-butyl ether, reference compound]	24.07	–	–
CCOC(=O)CC [Comparative Example 2, ethyl propionate, reference compound]	48.66	–	–
COc1cccc(C)n1 [Example 1, 2-methoxy-6-methylpyridine]	14.16	52.92	–
COC(=O)c1cccc(C)c1 [Example 2, methyl 3-methylbenzoate]	10.00	58.33	excellent ability to dissolve the cholesterol stone
CC(=O)C1CC1 [Example 3, 1-cyclopropylethanone]	28.57	60.00	–
